By IC50 is commonly meant the midpoint of a concentration-inhibition curve.

For the assay, the system named is HT29 cells. The assay is described as follows: Inhibition of cell necrosis (CCK8 method), induced programmed necrosis of HT29 cells. Conditions: Homo sapiens, HT-29; rescue from necrosis induced by TNF-α 20 ng/mL, AT-406 1 μM, Z-VAD-FMK 20 μM; 16-20 hours; CCK-8, OD 450 nm. It is filed as cell-based. Summed up: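 Rescue from programmed necrosis was scored by CCK-8 absorbance at 450 nm after 16-20 h of TNF-α (20 ng/mL), AT-406 (1 μM) and Z-VAD-FMK (20 μM) at 37 °C, 5% CO2. HT29 cells had received compound 30 min earlier across nine 4-fold dilutions (top 25000 nM final). IC50 came from % inhibition relative to uninduced and induced-only wells.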
For orientation: Tetrazolium dyes change colour on reduction, which living cells bring about.
`Cc1ccc(OCC2(O)CC2)cc1-c1ccnc(NC(=O)c2nnc(Cc3ccccc3)[nH]2)c1` [Example 159, 5-benzyl-N-(4-(5-((1-hydroxycyclopropyl)methoxy)-2-methylphenyl)pyridin-2-yl)-4H-1,2,4-triazole-3-carboxamide] registered a concentration for half-maximal inhibition (IC50) of at most 0.1 µM.

As for `Cc1ccc(OCCCC(C)(C)O)cc1-c1ccnc(NC(=O)c2nnc(Cc3ccccc3)[nH]2)c1` [Example 160, 5-benzyl-N-(4-(5-((4-hydroxy-4-methylpentyl)oxy)-2-methylphenyl)pyridin-2-yl)-4H-1,2,4-triazole-3-carboxamide], the concentration for half-maximal inhibition (IC50) was at most 0.1 µM.

As for `Cc1cc(C(C)(C)O)ccc1-c1ccnc(NC(=O)c2nnc(Cc3ccccc3)[nH]2)c1` [Example 161, 5-benzyl-N-(4-(4-(2-hydroxypropan-2-yl)-2-methylphenyl)pyridin-2-yl)-4H-1,2,4-triazole-3-carboxamide], the half-maximal inhibitory concentration (IC50) was 0.1 to 1 µM.

The compound `CC(=O)c1ccc(-c2ccnc(NC(=O)c3nnc(Cc4ccccc4)[nH]3)c2)c(C)c1` [Example 162, N-(4-(4-acetyl-2-methylphenyl)pyridin-2-yl)-5-benzyl-4H-1,2,4-triazole-3-carboxamide] displayed an IC50 of 0.1 to 1 µM.

With `Cc1ccc(OCCCC2(O)CCCC2)cc1-c1ccnc(NC(=O)c2nnc(Cc3ccccc3)[nH]2)c1` [Example 163, 5-benzyl-N-(4-(5-(3-(1-hydroxycyclopentyl)propoxy)-2-methylphenyl)pyridin-2-yl)-4H-1,2,4-triazole-3-carboxamide], the IC50 was at most 0.1 µM.

`Cc1ccc(OCCCC2(O)CCCCC2)cc1-c1ccnc(NC(=O)c2nnc(Cc3ccccc3)[nH]2)c1` [Example 164, 5-benzyl-N-(4-(5-(3-(1-hydroxycyclohexyl)propoxy)-2-methylphenyl)pyridin-2-yl)-4H-1,2,4-triazole-3-carboxamide] came in with an IC50 of at most 0.1 µM.

`CCC(O)(CC)CCCOc1ccc(C)c(-c2ccnc(NC(=O)c3nnc(Cc4ccccc4)[nH]3)c2)c1` [Example 165] showed an IC50 of at most 0.1 µM.

As to `CCC(O)(CC)CCCOc1ccc(C)c(-c2ccnc(NC(=O)c3nnc(CC4CCCC4)[nH]3)c2)c1` [Example 166, 5-(cyclopentylmethyl)-N-(4-(5-((4-ethyl-4-hydroxyhexyl)oxy)-2-methylphenyl)pyridin-2-yl)-4H-1,2,4-triazole-3-carboxamide], the IC50 is at most 0.1 µM.

The compound `Cc1ccc(OCCCCC(C)(C)O)cc1-c1ccnc(NC(=O)c2nnc(Cc3ccccc3)[nH]2)c1` [Example 167, 5-benzyl-N-(4-(5-((5-hydroxyl-5-methylhexyl)oxy)-2-methylphenyl)pyridin-2-yl)-4H-1,2,4-triazole-3-carboxamide] had an IC50 of at most 0.1 µM.

The compound `Cc1ccc(N(C)CCCC(C)(C)O)cc1-c1ccnc(NC(=O)c2nnc(Cc3ccccc3)[nH]2)c1` [Example 168] yielded a half-maximal inhibitory concentration (IC50) of 0.1 to 1 µM.

Compound `Cc1ccc(OCCCC(C)(C)O)cc1-c1ccnc(NC(=O)c2nnc(CC(C)C)[nH]2)c1` [Example 169, N-(4-(5-((4-hydroxy-4-methylpentyl)oxy)-2-methylphenyl)pyridin-2-yl)-5-isobutyl-4H-1,2,4-triazole-3-carboxamide] displayed an IC50 of at most 0.1 µM.

Compound `Cc1ccc(OCCCC(C)(C)O)cc1-c1ccnc(NC(=O)c2nnc(CC(C)(C)C)[nH]2)c1` [Example 170, N-(4-(5-((4-hydroxy-4-methylpentyl)oxy)-2-methylphenyl)pyridin-2-yl)-5-neopentyl-4H-1,2,4-triazole-3-carboxamide] returned an IC50 of 0.1 to 1 µM.

Compound `Cc1ccc(OCCCC(C)(C)O)cc1-c1ccnc(NC(=O)c2nnc(CC3CC3)[nH]2)c1` [Example 171, 5-(cyclopropylmethyl)-N-(4-(5-((4-hydroxy-4-methylpentyl)oxy)-2-methylphenyl)pyridin-2-yl)-4H-1,2,4-triazole-3-carboxamide] gave an IC50 of 0.1 to 1 µM.

In turn, `Cc1ccc(OCCCC(C)(C)O)cc1-c1ccnc(NC(=O)c2nnc(CC3CCC3)[nH]2)c1` [Example 172, 5-(cyclobutylmethyl)-N-(4-(5-((4-hydroxy-4-methylpentyl)oxy)-2-methylphenyl)pyridin-2-yl)-4H-1,2,4-triazole-3-carboxamide] returned a half-inhibitory concentration (IC50) of at most 0.1 µM.

In turn, `Cc1ccc(OCCCC(C)(C)O)cc1-c1ccnc(NC(=O)c2nnc(CC3CCCC3)[nH]2)c1` [Example 173, 5-(cyclopentylmethyl)-N-(4-(5-((4-hydroxy-4-methylpentyl)oxy)-2-methylphenyl)pyridin-2-yl)-4H-1,2,4-triazole-3-carboxamide] showed a concentration for half-maximal inhibition (IC50) of at most 0.1 µM.

Regarding `Cc1ccc(OCCCC(C)(C)O)cc1-c1ccnc(NC(=O)c2nnc(CC3CCCC3)o2)c1` [Example 174, 5-(cyclopentylmethyl)-N-(4-(5-((4-hydroxy-4-methylpentyl)oxy)-2-methylphenyl)pyridin-2-yl)-4H-1,3,4-oxadiazole-2-carboxamide], the half-inhibitory concentration (IC50) is 0.1 to 1 µM.

`Cc1ccc(OCCCC(C)(C)O)cc1-c1ccnc(NC(=O)c2nnc(CC3CCCCC3)[nH]2)c1` [Example 175, 5-(cyclohexylmethyl)-N-(4-(5-((4-hydroxy-4-methylpentyl)oxy)-2-methylphenyl)pyridin-2-yl)-4H-1,2,4-triazole-3-carboxamide] yielded an IC50 of at most 0.1 µM.

`Cc1ccc(OCCCC(C)(C)O)cc1-c1ccnc(NC(=O)c2nnc(CCC3CCCC3)[nH]2)c1` [Example 176, 5-(2-cyclopentylethyl)-N-(4-(5-((4-hydroxy-4-methylpentyl)oxy)-2-methylphenyl)pyridin-2-yl)-4H-1,2,4-triazole-3-carboxamide]: the IC50 is at most 0.1 µM.

`Cc1ccc(OCCCC(C)(C)O)cc1-c1ccnc(NC(=O)c2nnc(CC3CCOCC3)[nH]2)c1` [Example 177, N-(4-(5-((4-hydroxy-4-methylpentyl)oxy)-2-methylphenyl)pyridin-2-yl)-5-((tetrahydro-2H-pyran-4-yl)methyl)-4H-1,2,4-triazole-3-carboxamide] came in with an IC50 of at most 0.1 µM.

Turning to `Cc1ccc(OCCCC(C)(C)O)cc1-c1ccnc(NC(=O)c2nnc(CC3CCC(F)(F)CC3)[nH]2)c1` [Example 178, 5-((4,4-difluorocyclohexyl)methyl)-N-(4-(5-((4-hydroxy-4-methylpentyl)oxy)-2-methylphenyl)pyridin-2-yl)-4H-1,2,4-triazole-3-carboxamide], the IC50 is at most 0.1 µM.

Consider `Cc1ccc(OCCCC(C)(C)O)cc1-c1ccnc(NC(=O)c2nnc(CC3CC4CCC3C4)[nH]2)c1` (centres unmarked) [Example 179, 5-(bicyclo[2.2.1]heptan-2-ylmethyl)-N-(4-(5-((4-hydroxy-4-methylpentyl)oxy)-2-methylphenyl)pyridin-2-yl)-4H-1,2,4-triazole-3-carboxamide], for which the IC50 was at most 0.1 µM.

Take `Cc1ccc(OCCCC(C)(C)O)cc1-c1ccnc(NC(=O)c2nnc(CC34CC5CC(CC(C5)C3)C4)[nH]2)c1` [Example 180, 5-(adamantan-1-ylmethyl)-N-(4-(5-((4-hydroxy-4-methylpentyl)oxy)-2-methylphenyl)pyridin-2-yl)-4H-1,2,4-triazole-3-carboxamide]: the concentration for half-maximal inhibition (IC50) is at most 0.1 µM.

Compound `Cc1ccc(OCCCC(C)(C)O)cc1-c1ccnc(NC(=O)c2nnc(CN3CCOCC3)[nH]2)c1` [Example 181, N-(4-(5-((4-hydroxy-4-methylpentyl)oxy)-2-methylphenyl)pyridin-2-yl)-5-(morpholinomethyl)-4H-1,2,4-triazole-3-carboxamide] yielded an IC50 of 1 to 10 µM.

The values above are taken from patent US12435060B2, “Acylamino bridged heterocyclic compound, and composition and application thereof” (BEIJING SCITECH-MQ PHARMACEUTICALS LIMITED, priority 2019, dated 2025).
